# Source: article PMC12040169 (PLOS Biology, 2025)
# Assay: in vitro
# Conditions: human, hela cells
row,SMILES,"viability at 28.5 h, 10 µM"
1,CNC(=O)Oc1ccc(C)cc1C(=O)N(C)C [CBK012319],111%

# Same assay, conditions: human, hela cells, % viability
row,SMILES,"viability at 28.5 h, 10 µM"
1,CC(C)C[C@H]([C@@H]1C[C@@H](C(C)C)C(=O)O1)N1C(=O)c2ccccc2C1=O [CBK011526],93.9%
2,CCN(CC)Cc1nccn1-c1ccc([N+](=O)[O-])cc1C(=O)c1ccccc1Cl [CBK011562F],105%
3,COc1ccc(C2CNC(=O)C2)cc1OC1CCCC1 (centres unmarked) [CBK011603],86.5%
4,CCC(C)C(=O)O[C@H]1C[C@@H](C)C=C2C=C[C@H](C)[C@H](CC[C@@H]3C[C@@H](O)CC(=O)O3)[C@H]21 (some centres unmarked) [CBK011646],85.2%
5,O=C(O)Cc1ccc(-c2ccccc2)cc1 [CBK011660],104%
6,O=c1[nH]c(=O)n(C2CC(O)C(CO)O2)cc1F (centres unmarked) [CBK011695],49.6%
7,CCC(C(=O)O)c1ccc(-n2sc3ccccc3c2=O)cc1 (centres unmarked) [CBK011773],105%
8,Cc1nc(Cl)c(C(=O)NCCc2ccc(S(=O)(=O)NC(=O)NC3CCCCC3)cc2)nc1C [CBK011777],91.3%
9,O=C(COc1cccc(Cl)c1)NCCc1ccc(S(=O)(=O)NC(=O)NC2CCCCC2)cc1 [CBK011798],93.4%
10,CCCNCCc1ccc2c(c1)C(=O)N(Cc1ccc(OC)cc1)C2=O [CBK011826C],87.3%
11,CNc1cc(NS(=O)(=O)c2ccc(N)cc2)nc(NC)n1 [CBK011865C],96.1%
12,COc1ccc(C(O)CNC(C)C)c2c(C)c(C)oc12 (centres unmarked) [CBK011885C],97%
13,O=C(NC1CCCCC1)NS(=O)(=O)c1ccc(CCNC(=O)c2cccs2)cc1 [CBK011888],86.3%
14,NCC(=O)N(CCC1CCCC1)c1cccc2ccccc12 [CBK011922C],88.2%
15,COc1ccccc1C(C)CN(C)C (centres unmarked) [CBK011948C],91.2%
16,CCCCOc1ccc(C(=O)OC(Cc2cccc3ccccc23)CN(CC)CC)cc1 (centres unmarked) [CBK011965C],87.7%
17,Cc1cn(C2CC(O)C(CO)O2)c(=O)[nH]c1=O (centres unmarked) [CBK011998],93.3%
18,O=C(O)CCCCC1SCC2NC(=O)NC21 (centres unmarked) [CBK012026G],105%
19,Cc1cc(N)cc(C)c1O [CBK012062C],89.9%
20,CC(=O)c1c[nH]c(=O)[nH]c1=O [CBK012093],115%
21,CCN(CC)C(=O)c1cccc(OC)c1 [CBK012105],101%
22,CC(C)(CN)c1ccccc1 [CBK012106C],81.6%
23,O=C(O)CCN1CCCCC1 [CBK012168C],103%
24,COc1ccc(CC(=O)c2ccc(O)cc2O)cc1 [CBK012203],88.2%

row,SMILES,"viability at 28.5 h, 10 µM"
1,CN(C)CCN(Cc1ccccc1)c1ccccc1 [CBK012223C],114%
2,CS(=O)(=O)NC1CCCCC1 [CBK012234],89.3%
3,CC(=O)Nc1ccc(/C=N/c2ccccc2)cc1 [CBK012258],96.4%
4,OCC1OC(n2cnc3c(S)ncnc32)C(O)C1O (centres unmarked) [CBK012260],64.5%
5,Nc1nc(N2CCCCC2)nc2ccccc12 [CBK012270],114%
6,Cc1cccc(C(N)=O)c1O [CBK012294],112%
7,Cc1cc2nc3c(nc2cc1C)CCNCC3 [CBK012302],91.1%
8,CCCCC(c1ccc(Cl)cc1)N(CCN(C)C)c1ccccn1 (centres unmarked) [CBK012315F],86.3%
9,CCOC(=O)NC(=O)c1ccccc1 [CBK012359],108%
10,CC(=O)Oc1cc2c(c(OC(C)=O)n1)C(C)NC2=O (centres unmarked) [CBK012390],94.9%
11,O=C(O)CC1CCC2(CC1)Cc1ccccc1C2 [CBK012397],89.8%
12,CC(C(=O)N(C)C)n1cccc1 (centres unmarked) [CBK012421],86.4%
13,COC(=O)c1c(C)c(C(C)=O)n(C)c1C [CBK012459],117%
14,COc1ccc(CCNCC2OCCCc3cc(OC)c(OC)cc32)cc1OC (centres unmarked) [CBK012466C],94%
15,CN1CCCC(C(O)c2ccccc2)C1 (centres unmarked) [CBK012472],96.9%
16,CN(C)CCOC1OC(CO)C(O)C(O)C1O (centres unmarked) [CBK012476C],94.4%
17,Cc1[nH]c2c(C(=O)O)cccc2c1-c1ccccc1 [CBK012486],103%
18,O=C(NCCNCc1ccccc1)c1ccccc1 [CBK012505],119%
19,CCC1=C(c2ccc(Cl)cc2)CCC(C(=O)NCCCN(C)C)C1C (centres unmarked) [CBK012578],74.1%
20,CN(C(=O)Cc1ccccc1)c1ccccc1 [CBK012581],103%
21,CN(C)CCn1c(=O)c2c(ncn2C)n(C)c1=O [CBK012590],115%
22,CC(=O)NCC1CN(c2ccc3c(c2)CCN3C(=O)OC(C)(C)C)C(=O)O1 (centres unmarked) [CBK012600],99.7%
23,Cn1c(-c2cc(=O)c(C(=O)O)c[nH]2)n[nH]c1=O [CBK012603],79.6%
24,N#C/N=C(/Nc1cccnc1)Oc1ccccc1 [CBK012612],87.3%

row,SMILES,"viability at 28.5 h, 10 µM"
1,O=C(c1ccccc1Nc1cccc(C(F)(F)F)c1)N1CCN(c2ccccn2)CC1 [CBK012634],94.4%
2,Clc1ccc(-n2ccnc2)cc1 [CBK012658],107%
3,COc1ccc(C2N(N3C(=O)CC(=O)NC3=O)C(=O)CS2(=O)=O)cc1OC (centres unmarked) [CBK012702],94.8%
4,Cc1cc(N2CCOCC2)nc(N)n1 [CBK012710],99.1%
5,O=c1cc(O)cc(CCc2ccccc2)o1 [CBK012714],117%
6,O=C(NCO)c1ccccc1O [CBK012717],93.9%
7,CN(c1cncc(Cl)n1)C1CCN(Cc2ccccc2)CC1 [CBK012767F],77.7%
8,CCC1(CCc2ccccc2)CC(O)=CC(=O)O1 (centres unmarked) [CBK012790],98.5%
9,CCN(Cc1ccccc1)C(=O)Nc1ccccc1 [CBK012816],94.9%
10,O=C(c1ccccc1)N1CCCCC1 [CBK012821],99.1%
11,Cc1nnsc1[S+]([O-])c1ccc(Br)cc1 (centres unmarked) [CBK012927],96.1%
12,Cn1c(C(O)c2ccccc2)n[nH]c1=S (centres unmarked) [CBK012984],117%
13,O=C(O)CCSc1cccc(C(F)(F)F)c1 [CBK012986],111%
14,COc1ccc(CNCCN)cc1 [CBK013010],98.2%
15,CC(C)CC1(C(CN2C(=O)c3ccccc3C2=O)C(=O)NO)CCN(CCc2ccccc2)C1=O (centres unmarked) [CBK013029],103%
16,CC(=O)NC[C@H]1CN(c2ccc(C3CNC3)c(F)c2)C(=O)O1 [CBK013035],82.8%
17,O=C(O)c1ccc(C(=O)Nc2ccc3c(=O)n4c(nc3c2)/C(=C/c2ccccc2)CC4)cc1 [CBK013048],82.3%
18,COc1ccccc1OCCNC1CCc2cc(Cl)ccc2C1 (centres unmarked) [CBK013067C],93.2%
19,CCCCNC(=O)CCCN(CC)CCC1=CC2(CCCC2)c2ccccc21 [CBK013232],91.7%
20,O=C(COc1ccc(Cl)cc1)NCCc1ccc(S(=O)(=O)NC(=O)NC2CCCCC2)cc1 [CBK013261],92.4%
21,NC1CCN(C(=O)c2cc3ccccc3[nH]2)CC1 [CBK013294],89.7%
22,CC(C)N(CC(=O)N(c1ccccc1)c1ccccc1)C(C)C [CBK013303C],96.6%
23,c1ccc2c(c1)/C(=N/OCCCN1CCCCC1)CC21CCCCC1 [CBK013321],108%
24,CN(C)CCCO/N=C1\CC2(CCCC2)c2ccccc21 [CBK013331],80.7%

row,SMILES,"viability at 28.5 h, 10 µM"
1,Cc1cc(O)ccc1C(CC(=O)O)c1ccccc1 (centres unmarked) [CBK013350],100%
2,COC1=CC2CCNC(CCCCC3NCCc4cc(OC)c(OC)cc43)C2C=C1OC (centres unmarked) [CBK013354],87%
3,Cc1cc(C(C)(C)C)cc(C)c1S(=O)(=O)NCCSCCN [CBK013357],97.8%
4,Cc1cc(C)c(S(=O)(=O)NCCSCCC(=O)O)c(C)c1 [CBK013358],95.7%
5,c1ccc(Nc2cncc(N3CCNCC3)n2)cc1 [CBK013389],100%
6,FC(F)(F)c1cnc(N2CCNCC2)c(Cl)c1 [CBK013400],92.9%
7,CC(C)(C)OC(=O)N1CCN(c2nccnc2Cl)CC1 [CBK013554],102%
8,COc1c(C(=O)O)cc(C)c2c1CCC2C (centres unmarked) [CBK013617],101%
9,COc1cc2cc(O)c(C)c(NCc3ccco3)c2cc1OC [CBK013723],84.4%
10,CC1CC(NC(=S)NCc2csc3ccccc23)CC(C)(C)C1 (centres unmarked) [CBK013824],90.9%
11,CCn1c(CN2CCN(Cc3ccc4c(c3)OCO4)CC2)n[nH]c1=S [CBK013828],105%
12,CN(C)c1cccc(OCCn2ccnc(N3CCNCC3)c2=O)c1 [CBK013866F],114%
13,S=c1[nH]nc(CN2CCSCC2)n1-c1ccc(Cl)cc1 [CBK013868],105%
14,CC(C)(N)CN(Cc1ccccc1)C(=O)/C=C/c1ccccc1 [CBK013891T],90.8%
15,Clc1ccc(OCCOc2nccnc2N2CCNCC2)cn1 [CBK014049G],92.5%
16,CN(C)S(=O)(=O)N1CC2(CCN(C(=O)[C@@H]3CN(C(=O)C(C)(C)NC(=O)OC(C)(C)C)C[C@H]3c3cc4ccccc4o3)CC2)c2ccccc21 [CBK014088],89%
17,Cc1c(Cl)cccc1S(=O)(=O)N1CCCN(c2nc3ccc(Cl)cc3s2)CC1 [CBK014131],95.6%
18,O=S(=O)(Nc1nc(-c2sccc2Cl)cs1)c1cc(Cl)ccc1Cl [CBK014147],94.2%
19,O=C(c1ccccc1)c1cccc(OCCOc2nccnc2N2CCNCC2)c1 [CBK014250G],96.1%
20,FC(F)(F)Oc1cccc(OCCOc2nccnc2N2CCNCC2)c1 [CBK014323G],100%
21,OCCOc1cccc(OCCOc2nccnc2N2CCNCC2)c1 [CBK014339G],112%
22,CC1(C)Cc2c(oc(N)c2C#N)CO1 [CBK014395],101%

# Same assay, conditions: human, hela cells, % viability, bulk resorufin, single well
row,SMILES,"viability at 28.5 h, 10 µM"
1,CNC(Cc1ccccc1)c1ccccc1OC (centres unmarked) [CBK011943C],88.6%
2,C1=C(c2ccccc2)CCNC1 [CBK012268C],104%
3,Cc1ccc(Cl)cc1N1CCNCC1 [CBK013402],94.6%
